According to patent US4968696A, “N,N'-bis-L-amino acid-L-cystine-peptide containing amino acid preparations for oral parenteral nutrition” (Pfrimmer + Co. Pharmazeutische Werke Erlangen GmbH + co. KG, priority 1986, dated 1990):
Read-outs that look alike come from different tables or passages of the source. One block for each compound: values may come before it. Where a SMILES comes first, the peptide text is derived from it. Bridges are numbered along the chain shown (N, C = ends). Roman numbers before positions name the chains, in order.

Assays:
[1] = Sterilization tests (heat sterilization of aqueous peptide solutions, analysed by capillary isotachophoresis and HPLC); type: physicochemical; conditions: heat sterilization (121° C.)
Method: Starting from a stock solution of the tripeptide of the invention so obtained (2 mmol/1 in tris-buffer) solutions having pH-values of 5.5, 6.5, 7.5 and 8.5 were prepared by addition of 0.1 N HCL or KOH, respectively. Thereafter 0.1 ml each of these solutions were filled into ampoules purified with chromosulfuric acid, met sealed under vacuum and sterilized over 8, 12, 15 or 30 min, respectively.
Further respective solution of the cystinyl-bis-alanine-tripeptide were prepared and treated analogeously.
The stock solutions as well as the sterilized samples were analysized by means of capillary-isotachophoreses and HPLC. […] Therefore, said tripeptides are not only suitable for oral preparations, but also and in particular for the preparation of parenteral infusion solutions.

Solubility in water = type: physicochemical
[2] = cited from earlier work
[3] = In vivo utilization: single injection via vena cava catheter, plasma peptide/amino acid concentrations by RP-HPLC after DANSYL derivatization; design: species or system male Wistar-rats; conditions: for tripeptide concentration in plasma: 20 μmol/100 g bw
Method: For physiological investigation of the in vivo utilization of bis-amino acid cystine-peptides bis-glycyl-L-cystine and bis-L-alanyl-L-cystine were selected as examples and injected into male Wistar-rats in the form of a peptide single injection (50 μmole/100 g bw and 20 μmole/100 g bw respectively, injection volume 0.5-1 ml), by means of a vena cava-catheter within 5 s. The withdrawal of blood (1 ml in herparinized syringes) was 30, 60, 120, 180 and 300 s after application of the peptides. The plasma obtained by centrifugation was subsequently treated with 30% SSA (ratio of sample to SSA 10:1) for precipitation, maintained 1 h at 4° C., and finally centrifuged.
For determination of the bis-glycyl-L-cystine, mono-glycyl-L-cystine, bis-L-alanyl-L-cystine, mono-L-alanyl-L-cystine peptides as well as of the free amino acids glycine, alanine and cystine the precipitated plasma samples were analysed by high pressure liquid chromatography after pre-column derivatization with 5 dimethylaminonaphthaline-1-sulphonylchloride (DANSYL-Cl). The analytical conditions are summarized below:
RP-HPLC after DANSYL-Precolumn Derivatization
Column: Spherisorb ODS 11 3 μm (125×4.6 mm)
(A) 12.5 mM Na-phosphate-buffer of pH 6.6
Detection: fluorescence Em 550/Ex 325

[4] = 30 s after injection, 50 μmole/100 g bw
[5] = first measurement (30 s), 20 μmole/100 g bw

stability upon heat sterilization in aqueous solution [1]: unstable upon heat sterilization
time of heat sterilization after which other derivatives are formed [1]: ≤ 8 min
solubility in water (Solubility in water): well soluble in water
Structure (SMILES): C[C@H](NC(=O)[C@@H](N)CSSC[C@H](N)C(=O)N[C@@H](C)C(=O)O)C(=O)O [L-cystinyl-bis-L-alanine] (I: H-Cys-Ala-OH / II: H-Cys-Ala-OH; disulfide I:1-II:1)

tripeptide plasma concentration 5 min after injection relative to the value after 30 s ([3]; 50 μmole/100 g bw single injection, rat plasma): about 10%
tripeptide concentration in plasma ([3]; 30 s after injection): 655 µM
plasma cystine concentration versus starting concentration [3, 4]: 14 fold
plasma glycine concentration versus starting concentration [3, 4]: 12 fold
plasma cystine concentration versus starting value ([3]; 5 min after injection, 50 μmole/100 g bw): about 30 times
plasma cystine concentration versus starting point [3, 5]: 10 fold
plasma glycine concentration versus starting point [3, 5]: 5 fold
half-life ([3]; male, Wistar, rat, plasma, iv, two compartment model, residual method, n=5, 50 μmole/100 g bw, read-out: calculated half-life (converted)): 4 min
clearance from the plasma after single injection ([3]; rat): rapidly cleared from the plasma
Structure (SMILES): NCC(=O)N[C@@H](CSSC[C@H](NC(=O)CN)C(=O)O)C(=O)O [(gly-cys)2, N,N'-bis-glycyl-L-cystine] (I: H-Gly-Cys-OH / II: H-Gly-Cys-OH; disulfide I:2-II:2)
solubility in water (prior art statement) [2]: soluble

time after injection within which the tripeptide could be detected in all 6 test animals ([3]; 20 μmole/100 g bw): ≤ 2 min
time of maximum plasma alanine concentration ([3]; 20 μmole/100 g bw): 30 s
time of maximum plasma cystine concentration ([3]; 20 μmole/100 g bw): 60 s
tripeptide concentration in plasma ([3]; 30 s after injection): 280 µM
concentration of intermediate hydrolysis product ala-(cys)2 relative to the tripeptide ([3]; 30 s after injection, 20 μmole/100 g bw): about 5 fold
detection of tripeptide in plasma at the last sampling ([3]; 300 s after injection, 20 μmole/100 g bw): could not be detected
maximum plasma cystine concentration versus starting concentration ([3]; after 60 s, 20 μmole/100 g bw): 23 times
plasma alanine concentration versus starting level ([3]; after 300 s, 20 μmole/100 g bw): 3 times
plasma alanine concentration versus starting level ([3]; at the beginning (30 s), 20 μmole/100 g bw): ~7 times
level at time molar at 0.05 h ([3]; male, Wistar, rat, plasma, iv, 20 umole/100 g bw, heading: tripeptide concentration in plasma, 180 s after injection, detected in one sample only, 20 μmole/100 g bw): ~20 µM
half-life ([3]; male, Wistar, rat, plasma, iv, 20 μmole/100 g bw, concluded from data, not calculable, read-out: plasma half-life): < 2 min
clearance from the plasma after single injection ([3]; rat): rapidly cleared from the plasma
stability upon heat sterilization in aqueous solution [1]: remain stable upon heat sterilization
solubility in water (Solubility in water): well soluble in water
Structure (SMILES): C[C@H](N)C(=O)N[C@@H](CSSC[C@H](NC(=O)[C@H](C)N)C(=O)O)C(=O)O [(ala-cys)2, N,N'-bis-L-alanyl-L-cystine] (I: H-Ala-Cys-OH / II: H-Ala-Cys-OH; disulfide I:2-II:2)

Structure (SMILES): CC(=O)N[C@@H](CSSC[C@H](NC(C)=O)C(=O)O)C(=O)O [N,N'-bis-acetylcystine, reference compound]
solubility in water (prior art statement) [2]: relatively high solubility in water
